# Measured values as given in ChEMBL document CHEMBL5512666, “Selenization of Small Molecule Drugs: A New Player on the Board” (J Med Chem, 2024).
# Legend:
# [1] = Cytotoxicity against human SGC cells assessed as reduction in cell viability incubated for 96 hrs by MTT assay; assay type: toxicity, cell-based
# Candida albicans [2] = test: Antifungal activity against azole-resistant Candida albicans clinical isolate 632 assessed as fungal growth inhibition incubated for 24 hrs by CLSI protocol based broth microdilution method; assay type: functional
# Candida albicans [3] = test: Antifungal activity against azole-resistant Candida albicans clinical isolate 17 assessed as fungal growth inhibition incubated for 24 hrs by CLSI protocol based broth microdilution method; assay type: functional
# Candida albicans [4] = test: Antifungal activity against azole-resistant Candida albicans clinical isolate 904 assessed as fungal growth inhibition incubated for 24 hrs by CLSI protocol based broth microdilution method; assay type: functional
# Candida albicans [5] = test: Antifungal activity against azole-resistant Candida albicans clinical isolate 901 assessed as fungal growth inhibition incubated for 24 hrs by CLSI protocol based broth microdilution method; assay type: functional
# Candida albicans [6] = test: Antifungal activity against azole-resistant Candida albicans clinical isolate CaR assessed as fungal growth inhibition incubated for 24 hrs by CLSI protocol based broth microdilution method; assay type: functional
# [7] = Cytotoxicity against human MDA-MB-231 cells assessed as reduction in cell viability incubated for 96 hrs by MTT assay; assay type: toxicity, cell-based
# [8] = Cytotoxicity against human A549 cells assessed as reduction in cell viability incubated for 96 hrs by MTT assay; assay type: toxicity, cell-based
# Lactoperoxidase = Lactoperoxidase (Homo sapiens, UniProt P22079); test: Inhibition of LPO (unknown origin)-mediated L-tyrosine nitration incubated for 20 mins in presence of H2O2 and sodium nitrite by RP-HPLC analysis
# Aspergillus fumigatus = test: Antifungal activity against Aspergillus fumigatus CGMCC 3.7795; assay type: functional
# Candida albicans [9] = test: Antifungal activity against Candida albicans SC5314; assay type: functional
# Nakaseomyces glabratus = test: Antifungal activity against Candida glabrata; assay type: functional
# Candida albicans [10] = test: Antifungal activity against Candida albicans CPCC 400616; assay type: functional
# Cryptococcus neoformans = test: Antifungal activity against Cryptococcus neoformans CGMCC 2.3161; assay type: functional
# Pichia kudriavzevii = test: Antifungal activity against Candida krusei AS 2.1045; assay type: functional
# Candida parapsilosis = test: Antifungal activity against Candida parapsilosis 22019; assay type: functional; settings: Lodderomyces parapsilosis
# Candida tropicalis = test: Antifungal activity against Candida tropicalis CGMCC 2.3739; assay type: functional
# A549 [11] = test: Cytotoxicity against human A549 cells assessed as inhibition of cell growth incubated for 96 hrs by MTT assay; assay type: functional, cell-based; settings: A549, 96 h
# SMMC-7721 = test: Cytotoxicity against human SMMC-7721 cells assessed as inhibition of cell growth incubated for 96 hrs by MTT assay; assay type: functional, cell-based; settings: SMMC-7721, 96 h
# HepG2 = test: Cytotoxicity against human HepG2 cells assessed as inhibition of cell growth incubated for 96 hrs by MTT assay; assay type: functional, cell-based; settings: HepG2, 96 h
# HeLa [12] = test: Cytotoxicity against human HeLa cells assessed as inhibition of cell growth incubated for 96 hrs by MTT assay; assay type: functional, cell-based
# [13] = Stability in rat plasma assessed as half life; assay type: ADME, cell-free
# DU-145 = test: Cytotoxicity against human DU-145 cells incubated for 48 hrs; assay type: functional, cell-based; settings: DU-145, 48 h
# LNCaP = test: Cytotoxicity against human LNCaP cells incubated for 48 hrs; assay type: functional, cell-based
# [14] = Cytotoxicity against MEF cells assessed as reduction in cell viability incubated for 48 hrs by MTT assay; assay type: toxicity, cell-based; settings: mouse
# PANC-1 = test: Cytotoxicity against human PANC-1 cells assessed as reduction in cell viability incubated for 48 hrs by MTT assay; assay type: functional, cell-based; settings: PANC-1, 48 h
# BXPC-3 = test: Cytotoxicity against human BXPC-3 cells assessed as reduction in cell viability incubated for 48 hrs by MTT assay; assay type: functional, cell-based; settings: BXPC-3, 48 h
# MIA PaCa-2 = test: Cytotoxicity against human MIA PaCa-2 cells assessed as reduction in cell viability incubated for 48 hrs by MTT assay; assay type: functional, cell-based; settings: MIA PaCa-2, 48 h
# PC-3 = test: Cytotoxicity against human PC-3 cells incubated for 48 hrs; assay type: functional, cell-based; settings: PC-3, 48 h
# HCT-116 = test: Cytotoxicity against human HCT-116 cells measured after 72 hrs; assay type: functional, cell-based; settings: HCT-116, 72 h
# [15] = Cytotoxicity against mouse NIH3T3 cells measured after 72 hrs; assay type: toxicity, cell-based
# A549 [16] = test: Cytotoxicity against human A549 cells measured after 72 hrs; assay type: functional, cell-based; settings: A549, 72 h
# [17] = Cytotoxicity against mouse L929 cells measured after 72 hrs; assay type: toxicity, cell-based
# HeLa [18] = test: Cytotoxicity against human HeLa cells measured after 72 hrs; assay type: functional, cell-based
# Human alphaherpesvirus 2 = test: Antiviral activity against HSV-2 infected in African green monkey Vero cells assessed as reduction in virus-induced cytopathic effect incubated for 3 days by MTT assay; assay type: functional, organism-based; settings: Human alphaherpesvirus 2, Vero, 72 h
# Human alphaherpesvirus 1 = test: Antiviral activity against HSV-1 infected in African green monkey Vero cells assessed as reduction in virus-induced cytopathic effect incubated for 3 days by MTT assay; assay type: functional, organism-based; settings: Human alphaherpesvirus 1, Vero, 72 h
# Human betaherpesvirus 5 = test: Antiviral activity against […] infected in African green monkey Vero cells assessed as reduction in virus-induced cytopathic effect incubated for 3 days by MTT assay; assay type: functional, organism-based; settings: Human betaherpesvirus 5, Vero, 72 h
# Human alphaherpesvirus 3 = test: Antiviral activity against VZV infected in African green monkey Vero cells assessed as reduction in virus-induced cytopathic effect incubated for 3 days by MTT assay; assay type: functional, organism-based; settings: Human alphaherpesvirus 3, Vero, 72 h
# Sequence of Lactoperoxidase (P22079 whole entry): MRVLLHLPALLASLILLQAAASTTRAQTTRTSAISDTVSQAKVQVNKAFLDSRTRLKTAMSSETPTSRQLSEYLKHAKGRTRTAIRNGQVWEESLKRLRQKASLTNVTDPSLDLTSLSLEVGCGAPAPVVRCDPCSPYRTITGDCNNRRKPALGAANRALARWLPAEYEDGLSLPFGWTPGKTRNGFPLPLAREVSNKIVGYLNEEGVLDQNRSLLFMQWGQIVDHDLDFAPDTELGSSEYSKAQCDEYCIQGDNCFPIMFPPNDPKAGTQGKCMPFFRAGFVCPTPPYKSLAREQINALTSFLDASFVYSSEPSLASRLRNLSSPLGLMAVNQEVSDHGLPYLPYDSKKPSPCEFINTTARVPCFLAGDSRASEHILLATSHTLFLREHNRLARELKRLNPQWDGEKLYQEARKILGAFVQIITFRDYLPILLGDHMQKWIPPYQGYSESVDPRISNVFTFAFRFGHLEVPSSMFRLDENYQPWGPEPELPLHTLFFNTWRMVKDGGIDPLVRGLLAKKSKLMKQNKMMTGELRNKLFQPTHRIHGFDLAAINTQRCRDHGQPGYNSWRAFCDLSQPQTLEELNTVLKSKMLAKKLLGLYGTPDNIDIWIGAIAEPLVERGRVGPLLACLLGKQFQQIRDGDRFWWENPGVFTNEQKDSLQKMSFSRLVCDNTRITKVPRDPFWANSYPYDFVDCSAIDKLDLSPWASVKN
smiles,measurement,setting,value
Clc1ccc(-c2nn[se]c2-n2cncn2)c(Cl)c1,IC50 at 96 h,[1],19.5 µg/mL
same,MIC,Candida albicans [2],16 µg/mL
same,MIC,Candida albicans [3],4 µg/mL
same,MIC,Candida albicans [4],32 µg/mL
same,MIC,Candida albicans [5],8 µg/mL
same,MIC,Candida albicans [6],4 µg/mL
same,IC50 at 96 h,[7],23.5 µg/mL
same,IC50 at 96 h,[8],16.9 µg/mL
COc1cccc(Cn2ccn(Cc3cccc(OC)c3)c2=S)c1,IC50,Lactoperoxidase,137000 nM
CCC(C)n1ncn(-c2ccc(N3CCN(c4ccc(OCC5COC(Cn6cncn6)(c6ccc(Cl)cc6Cl)O5)cc4)CC3)cc2)c1=O (centres undefined) [ITRACONAZOLE],MIC,Aspergillus fumigatus,2 µg/mL
same,MIC,Candida albicans [9],0.03 µg/mL
same,MIC,Nakaseomyces glabratus,0.5 µg/mL
same,MIC,Candida albicans [2],> 128 µg/mL
same,MIC,Candida albicans [10],0.25 µg/mL
same,MIC,Cryptococcus neoformans,0.5 µg/mL
same,MIC,Candida albicans [3],> 128 µg/mL
same,MIC,Candida albicans [4],> 128 µg/mL
same,MIC,Candida albicans [5],> 128 µg/mL
same,MIC,Pichia kudriavzevii,0.06 µg/mL
same,MIC,Candida parapsilosis,0.25 µg/mL
same,MIC,Candida tropicalis,0.5 µg/mL
same,MIC,Candida albicans [6],8 µg/mL
Clc1ccc(-c2nn[se]c2-n2ccnc2)c(Cl)c1,IC50 at 96 h,[1],14.6 µg/mL
same,MIC,Candida albicans [2],16 µg/mL
same,MIC,Candida albicans [3],16 µg/mL
same,MIC,Candida albicans [4],16 µg/mL
same,MIC,Candida albicans [5],32 µg/mL
same,MIC,Candida albicans [6],1 µg/mL
same,IC50 at 96 h,[7],14.7 µg/mL
same,IC50 at 96 h,[8],16.2 µg/mL
Cn1cc[nH]c1=S [METHIMAZOLE],IC50,Lactoperoxidase,510 nM
O=C(Nc1ccn([C@@H]2O[C@H](CO)[C@@H](O)C2(F)F)c(=O)n1)OC1C[Se][Se]C1,IC50,A549 [11],110 nM
same,IC50,SMMC-7721,330 nM
same,IC50,HepG2,470 nM
same,IC50,HeLa [12],880 nM
COc1cc2c(c(OC)c1OC)-c1ccc(OC)c(=O)cc1[C@@H](NC(C)=O)CC2 [COLCHICINE],IC50 at 96 h,[1],0.045 µg/mL
Cc1cccc(C)c1[Se]C(Cn1ccnc1)c1ccc(F)cc1 (centres undefined),MIC,Aspergillus fumigatus,2 µg/mL
same,MIC,Candida albicans [9],0.03 µg/mL
same,MIC,Nakaseomyces glabratus,0.25 µg/mL
same,MIC,Candida albicans [10],0.03 µg/mL
same,MIC,Cryptococcus neoformans,0.13 µg/mL
same,MIC,Pichia kudriavzevii,0.06 µg/mL
same,MIC,Candida parapsilosis,0.13 µg/mL
same,MIC,Candida tropicalis,0.06 µg/mL
c1ccc(-c2nn[se]c2-n2cncn2)cc1,IC50 at 96 h,[1],30.8 µg/mL
same,MIC,Candida albicans [2],32 µg/mL
same,MIC,Candida albicans [3],16 µg/mL
same,MIC,Candida albicans [4],32 µg/mL
same,MIC,Candida albicans [5],32 µg/mL
same,MIC,Candida albicans [6],2 µg/mL
same,IC50 at 96 h,[7],80.7 µg/mL
same,IC50 at 96 h,[8],20.5 µg/mL
Cc1ccccc1[Se]C(Cn1ccnc1)c1ccc(Cl)cc1 (centres undefined),MIC,Aspergillus fumigatus,4 µg/mL
same,MIC,Candida albicans [9],0.03 µg/mL
same,MIC,Nakaseomyces glabratus,0.5 µg/mL
same,MIC,Candida albicans [10],0.06 µg/mL
same,MIC,Cryptococcus neoformans,0.5 µg/mL
same,half-life,[13],> 6 h
same,MIC,Pichia kudriavzevii,0.13 µg/mL
same,MIC,Candida parapsilosis,0.5 µg/mL
same,MIC,Candida tropicalis,0.03 µg/mL
Nc1ccn([C@@H]2O[C@H](CO)[C@@H](O)C2(F)F)c(=O)n1 [GEMCITABINE],IC50,A549 [11],690 nM
same,IC50,SMMC-7721,460 nM
same,IC50,HepG2,2460 nM
same,IC50,HeLa [12],3900 nM
CC(=O)Oc1ccccc1C(=O)/N=C1\[Se]CCN1C(=O)c1ccccc1OC(C)=O,IC50,DU-145,520 nM
same,IC50,LNCaP,2340 nM
same,IC50 at 48 h,[14],> 50000 nM
same,IC50,PANC-1,740 nM
same,IC50,BXPC-3,2090 nM
same,IC50,MIA PaCa-2,3030 nM
same,IC50,PC-3,1700 nM
CC[C@@]1(O)C(=O)OCc2c1cc1n(c2=O)Cc2cc3ccccc3nc2-1 [CAMPTOTHECIN],IC50,HCT-116,11 nM
same,IC50 at 72 h,[15],86 nM
same,IC50,A549 [16],21 nM
same,IC50 at 72 h,[17],1130 nM
same,IC50,HeLa [18],108 nM
CNC1NC(N)=Nc2c1ncn2C[Se]CCO (centres undefined),EC50,Human alphaherpesvirus 2,17600 nM
same,EC50,Human alphaherpesvirus 1,14300 nM
same,EC50,Human betaherpesvirus 5,> 100000 nM
same,EC50,Human alphaherpesvirus 3,> 100000 nM
Cc1cccc(C)c1[Se]C(Cn1ccnc1)c1ccc(Cl)cc1 (centres undefined),MIC,Aspergillus fumigatus,1 µg/mL
same,MIC,Candida albicans [9],0.03 µg/mL
same,MIC,Nakaseomyces glabratus,0.13 µg/mL
same,MIC,Candida albicans [10],0.03 µg/mL
same,MIC,Cryptococcus neoformans,0.13 µg/mL
same,MIC,Pichia kudriavzevii,0.03 µg/mL
same,MIC,Candida parapsilosis,0.03 µg/mL
same,MIC,Candida tropicalis,0.06 µg/mL
CC[C@@]1(OC(=O)OCc2ccc(O/C=C/[Se]c3ccccc3)cc2)C(=O)OCc2c1cc1n(c2=O)Cc2cc3ccccc3nc2-1,IC50,HCT-116,43 nM
same,IC50 at 72 h,[15],1180 nM
same,IC50,A549 [16],102 nM
same,IC50 at 72 h,[17],10200 nM
same,IC50,HeLa [18],308 nM
